Results on 1 molecule are retold here after patent US20240076347A1, “METHODS FOR PREVENTING FUNGAL INFECTIONS” (Cidara Therapeutics, Inc., priority 2016, published 2024).

The subject of experiment [1] is A. fumigatus ATCC 13073. Nature of the experiment: Disseminated aspergillosis in neutropenic ICR mice (Example 14), treatment and prophylaxis. The class given is in vivo, Aspergillus fumigatus. The procedure: Disseminated aspergillosis: ICR mice (6/grp) were made neutropenic by cyclophosphamide on Days −3 (270 mg/kg), +1 and +4 (90 mg/kg). IV infection with A. fumigatus ATCC 13073 (10^4 CFU/mouse) on Day 0. […] Survival monitored for a 10 days. Same model was used for prophylaxis except CD101 was dosed on Days −1, −3 or −5.

Experiment [2] deals with Candida albicans clinical isolates. Particulars: SENTRY surveillance (Pfaller, et al 2017); cited from earlier work.
Experiment [3] relates to Pneumocystis murina. Nature of the experiment: Pneumocystis murina mouse prophylaxis study, lung nuclei and asci counts. The class given is in vivo. The procedure: C3H/HeN mice (Charles River) were infected with P. murina by intranasal inoculation of P. murina organisms at 2×10^6/50 μl from a liquid nitrogen repository. Prior to inoculation, the P. murina were pre-incubated overnight in RPMI 1640 medium supplemented with calf serum and antibiotics to eliminate any bacterial contamination. The immune systems of the mice were suppressed by the addition of dexamethasone at 4 μ[…] to acidified drinking water (sulfuric acid at 1 ml/liter). Acidification is used to prevent secondary microbial infections. The mice were divided into a negative control group (control steroid-C/S), positive control group (trimethoprim/sulfamethoxazole-TMP/SMX) and treatment groups. Drugs to be tested were administered intraperitoneally (IP) on a mg/kg/d basis; dose, route, and frequency of administration varied depending on the agent being tested. […] Immune suppression and treatment continued for the entire 6 week study. At that time, the mice were euthanized by CO2 and lungs processed for analysis by homogenization. Slides were made from the lung homogenates at different dilutions and stained with Diff-Quik to quantify the trophic forms and cresyl echt violet to quantify the asci. Efficacy is based on the reduction of organism burden between the treatment groups and the negative control group was determined by microscopic evaluation. The nuclei and asci counts for each lung were log transformed and statistical analysis was determined by the analysis of variance (ANOVA); individual groups were compared by the Student-Newman-Keuls t test for multiple comparisons using GraphPad Prism.

Experiment [4] has as its system Candida auris. The experiment in a line: Murine model of disseminated candidiasis (immunosuppressed CD-1 mice), treatment. The class given is in vivo. Particulars: 20 mg/kg IP. The procedure: Female 6-8 week old CD-1 mice were immunosuppressed with cyclophosphamide (200 mg/kg) 3 days prior to infection and 150 mg/kg 1 day post-infection. On the day of infection, mice were inoculated with 3×10^7 C. auris blastospores via the lateral tail vein. Mice were randomized into 5 groups (n=5 for colony forming units (CFU) and n=10 for survival): CD101 20 mg/kg administered by intraperitoneal (IP) injection, fluconazole 20 mg/kg administered per os (PO), amphotericin B 0.3 mg/kg IP, and a vehicle control. Treatments were administered 2 hours post-infection (Day 1) and again on Day 4 of the study for a total of 2 doses. Mice were monitored daily and a survival curve was generated. CFU groups were sacrificed on Day 8 of the study. One kidney was removed from each mouse, homogenized, plated on potato dextrose agar (PDA), and incubated at 35° C. for 2 days to determine CFU. The remaining survival mice were monitored until the end of the study (Day 14).

For experiment [5], the system named is C. albicans SC-5314 biofilms. Nature of the experiment: Mature phase biofilms (treatment) on silicone elastomer discs. The class given is cell-based, Candida albicans. The procedure:
Biofilms were formed on silicone elastomer (SE) discs using a catheter-associated-biofilm model (Chandra et al., Nature Protocols 3:1909, 2008; Chandra et al., J. […] Chandra et al., J. Dental Research 80: 903, 2001). For evaluation of activity against adhesion phase biofilms (prevention), Candida cells were adhered to catheter discs for 90 min. […] Discs incubated with fluconazole or media alone were used as controls in all experiments. […] Chandra et al., J. […] Chandra et al., J. Dental Research 80: 903, 2001). Following incubation with drugs, discs were transferred to fresh plates containing phosphate buffered saline with XTT and menadione, incubated for 3 h at 37° C. and optical density was read at 492 nm. Separate batches of biofilms were stained with fluorescent dyes (FUN1™, CONA) and observed under Confocal Scanning Laser Microscope (CSLM) to evaluate biofilm architecture and thickness (Chandra et al., Nature Protocols 3:1909, 2008; Chandra et al., J. […] Statistical analyses for all data were performed using GraphPad Prism 6 software. Drug treated groups were compared to control untreated groups using unpaired t-tests.

Experiment [6] relates to C. parapsilosis. Nature of the experiment: In vitro susceptibility testing (CLSI M27-A3). The class given is cell-based, Candida parapsilosis. Particulars: Lodderomyces parapsilosis, 24 h. The procedure:
Strains. Ten clinical Candida strains were used for the in vivo treatment studies, including four C. albicans, three C. glabrata, and three C. parapsilosis strains (Table 18). This group was selected to encompass phenotypic variability in susceptibility to triazoles and echinocandins and based on similar fitness in the animal model as defined by the amount of growth in control animals over 24 h. The organisms were maintained, grown, and quantified on Sabouraud's dextrose agar (SDA) plates.
In vitro susceptibility testing. All isolates were tested in accordance with the standards in CLSI document M27-A3. The MICs were determined visually after 24 h of incubation as the lowest concentration of drug that causes a significant diminution (≥50%) of growth compared to controls. MICs were determined on three separate occasions in duplicate.

Experiment [7] concerns A. fumigatus clinical isolates. Nature of the experiment: MEC, CLSI broth microdilution (M38-A2), SENTRY clinical isolates. The class given is cell-based, Aspergillus fumigatus. Particulars: 153 isolates, 2014 and 2015 SENTRY. The text has this: The in vitro activity of CD101 was previously evaluated as part of the SENTRY international surveillance program using CLSI broth microdilution methodology (M38-A2, M27-A3; Pfaller, et al 2017). […] These susceptibility data were then compared graphically to CD101 plasma concentrations from studies in healthy adults, adjusted for plasma protein binding. Nonclinical efficacy in a murine model of Pneumocystis pneumonia were also considered to evaluate CD101 doses for clinical investigation of antifungal prophylaxis.
The in vitro activity of CD101 was evaluated against 153 A. fumigatus clinical isolates collected as part of the 2014 and 2015 JMI international SENTRY surveillance program. Susceptibility was determined by measuring the minimal effective concentration (MEC) values in accordance with CLSI broth microdilution guidelines (M38-A2). In vivo tissue distribution of CD101 in SD rats (N=3/time up to 5 d) after a 5 mg/kg IV CD101 dose. Plasma/tissue concentrations were measured by LC-MS/MS.
For orientation: In broth dilution the organism is exposed to a series of concentrations in liquid medium.

Numbered stars: 1 amine (or outer) side, 2 acyl side, 3 side chain; on linkers, the order of the positions; unused ones are H or OH. Bridge positions count the residues as written; N and C are the ends. Square brackets hold non-standard residues; d marks the D form. Peptide text beside a SMILES is read from it. * marks the point of attachment. ξ: configuration not given here. Orn(4R-OH,5R-OCH2CH2NMe3+) = C[N+](C)(C)CCO[C@@H](N[*:3])[C@H](O)C[C@H](N[*:1])C(=O)[*:2]; pTerphenylCO(4''-OnC5H11) = CCCCCOc1ccc(-c2ccc(-c3ccc(C(=O)*)cc3)cc2)cc1; hTyr(3S-OH,4S-OH) = N[C@H](C(=O)O)[C@H](O)[C@@H](O)c1ccc(O)cc1; X1 = C[C@H]1CN([*:1])C(C(=O)[*:2])C1O; Hyp = O=C(O)[C@@H]1C[C@@H](O)CN1; ξT = CC(O)C(N)C(=O)O

Usually MIC90 stands for the lowest concentration that inhibits either 90% of growth or 90% of the strains tested, depending on the study. In general, MIC refers to the lowest concentration found to suppress growth. A high value points to a less susceptible organism. With `CCCCCOc1ccc(-c2ccc(-c3ccc(C(=O)N[C@H]4C[C@@H](O)[C@@H](OCC[N+](C)(C)C)NC(=O)C5C(O)[C@@H](C)CN5C(=O)[C@H]([C@@H](C)O)NC(=O)[C@H]([C@H](O)[C@@H](O)c5ccc(O)cc5)NC(=O)[C@@H]5C[C@@H](O)CN5C(=O)C(C(C)O)NC4=O)cc3)cc2)cc1` (stereo partly drawn) [CD101] ({pTerphenylCO(4''-OnC5H11)}-[Orn(4R-OH,5R-OCH2CH2NMe3+)][ξT][Hyp][hTyr(3S-OH,4S-OH)]T[X1]; lactam 1-C), the survival in experiment [1] (prophylaxis) is 100%; in experiment [1] (prophylaxis, single 5 mg/kg given up to 5 days prior to infection) it was “improved survival depending on day given”; in experiment [1] (treatment, IV/IP at 0.2, 1 or 5 mg/kg BID×5 d, vs vehicle) it was “significant increase in survival compared to vehicle”; in experiment [1] (treatment, single 2 mg/kg vs 0.2 mg/kg BID×5 d), “Survival was comparable”. The MIC90 in experiment [2] is 0.06 µg/mL. In addition, the “asci levels (lung)” value is “no difference in efficacy” in experiment [3] (5 CD101 treatment groups vs positive control TMP/SMX) and “statistically significant reduction in asci levels” in experiment [3] (IP, all CD101 treatment groups, 6 weeks, vs negative control). Also, the “nuclei levels (lung)” value is on record as “statistically significant reduction in nuclei levels” in experiment [3] (IP, all dose levels except 0.2 mg/kg/1×/week, 6 weeks, vs negative control) and “equally as efficacious as the positive control TMP/SMX” in experiment [3] (three of the CD101 treatment groups, 6 weeks). Moreover, the “human equivalent doses preventing Pneumocystis pneumonia in mice” value in experiment [3] (mice) was less than 50 mg. Further, the “average reduction in kidney CFU” value in experiment [4] (2 doses (Day 1, Day 4), Day 8, compared to fluconazole, amphotericin B and vehicle groups) is 3 log. For the same molecule, the “percent survival at the end of the study” value in experiment [4] (2 doses, Day 14) worked out at 80%. Further, the “biofilm architecture (CSLM)” value in experiment [5] (0.25 and 1 μg/ml) is “eradicated and showed bulged, deformed/broken cells”. Moreover, in experiment [5] (0.25 and 1 μg/ml, 24 h, vs untreated, P<0.05), the “biofilm metabolic activity (XTT)” value was “significantly less metabolic activity”. In addition, the thickness of biofilms in experiment [5] (CD101 exposed, untreated control 43 μm, P<0.05) came out at 24 μm. Moreover, the MIC in experiment [6] (strain 20423.072) turned out to be 0.5 µg/mL; in experiment [6] (strain 20477.048), 1 µg/mL; in experiment [6] (strain 20519.069) it was 1 µg/mL. In addition, the MEC50 in experiment [7] stood at 0.015 µg/mL. In addition, the MEC90 in experiment [7] came to 0.015 µg/mL.
